Measurements from US6825218B1, “Spherical agglomerates of telithromycin, their preparation process and their use in the preparation of pharmaceutical forms” (Aventis Pharma S. A., priority 1999, dated 2004).

Assay: Granulometry: particle size by laser diffraction (HELOS SYMPATEC granulometer)
Assay type: physicochemical
Conditions: after sieving on a 500 μm grid
Protocol: The size of the particles is determined by laser diffraction using a HELOS SYMPATEC® model granulometer.

CC[C@H]1OC(=O)[C@H](C)C(=O)[C@H](C)[C@@H](O[C@@H]2O[C@H](C)C[C@H](N(C)C)[C@H]2O)[C@](C)(O)C[C@@H](C)C(=O)[C@H](C)[C@H]2N(CCCCn3cnc(-c4cccnc4)c3)C(=O)O[C@]12C [spherical agglomerates of telithromycin, 11,12-dideoxy-3-de((2,6-dideoxy-3-C-methyl-3-O-methyl-alpha-L-ribohexopyranosyl)oxy)-6-O-methyl-3-oxo-12,11-(oxycarbonyl((4-(4-(3-pyridinyl)-1H-imidazol-1-yl)butyl)imino))-erythromycin]
diameter of 10% of the particles (10% of the particles below this diameter): < 77 microns
diameter of 50% of the particles (50% of the particles below this diameter): < 107 microns
diameter of 90% of the particles (90% of the particles below this diameter): < 166 microns
